Patent US10980769B2, “Tiglien-3-one derivatives” (QBIOTICS PTY LTD, priority 2005, dated 2021)
Entries after “also recorded” stand apart in the source; their conditions may differ.

Experiments:
LK2 mouse SCC = test: Topical treatment of LK2 mouse SCC tumours in nude mice; format: in vivo
Protocol: Tumour cells were injected subcutaneously (2 million cells/site in 50 μL culture medium for LK2 cells, 0.5 million for B16) into 4 sites each on the flanks of nude mice (for LK2 cells) or C57BL/6 mice (B16 mouse melanoma cells). When tumours became visible (2-4 mm diameter) five to 10 days after injection of cells, 37 μg of EBI-46 in 25 μL, of isopropanol gel was applied to each tumour site, each day for 3 days. Tumour size was measured with calipers at appropriate intervals.
Animal experiments were conducted under Queensland Institute of Medical Research (QIMR) Animal Ethics Committee approvals. The B16 mouse melanoma model was obtained by injecting 0.5 million B16 mouse melanoma cells subcutaneously into each of the 2 flanks of a male C57BL/6 mouse. The human tumour xenografts were obtained by injecting 2 million of the respective tumour cell line into each of 4 sites on the flanks of male nude mice (BALB/c background). EBI-46 was applied: (a) topically by dilution of a concentrated solution in acetone into an isopropanol gel, once a day for 3 days; (b) intralesionally by injection into the tumour of drug dissolved in 25% propylene glycol-0.1 M saline, (c) systemically by injection intraperitoneally in 25% propylene glycol in 0.1 M saline. Tumour size was measured with electronic callipers in mm and converted to volume (cubic mm) using the formula: Tumour volume=length×breadth×breadth/2. Results
The above was repeated using the UVB-induced mouse squamous cell carcinoma (SCC) grown on nude mice (FIG. 6) and treated with partially-purified EBI-46.
The most recent experiment with topical application used 2 different doses of EBI-46 (FIG. 7). The low dose was 100 μg/site and the high dose was 350 μg/site/treatment.

PKC = PKC activation in cultured tumour cells (scattering and growth inhibition of MCF7); format: cell-based, human; conditions: defined by scattering and growth inhibition of MCF7 breast cancer cells
[1] = system: Mouse squamous cell carcinoma K-2; test: Growth inhibition of cultured cells; format: cell-based
Protocol: (§1) Briefly, a range of tumour cells including mouse melanoma, human melanoma, mouse squamous cell carcinoma, human breast, human colon, human leukemia and human lung and normal human cells including normal human fibroblasts were seeded at 2-5,000 per microtitre well (96-well plate) in 10% FCS-RPMI 1640 culture medium, treated, and allowed to grow until the controls were nearly confluent (5-6 days). The wells were then washed twice with PBS, fix with ethanol for a minimum of 5 minutes and washed with water. SRB solution (50 μL of 0.4% in 1% acetic acid) was added and left at room temperature for a minimum of 15 minutes. The plate was washed rapidly with tap water and then twice with 1% acetic acid. After addition of 100 μL/well of 10 mM Tris base (unbuffered, pH>9), plates were left for a minimum of 5 minutes, then the absorbance was read at 564 nm on the ELISA reader, with a 3 second prior shaking. After subtraction of a blank (wells with no cells, absorbance typically about 0.04), growth inhibition was calculated as % of the untreated control and plotted against dose.
(§2) Briefly, a suspension of a range of tumour cells including mouse melanoma, human melanoma, mouse squamous cell carcinoma, human breast, human colon, human leukemia and human lung and normal human cells including normal human fibroblasts were seeded into round-bottom microtitre plates in 10% FCS-RPMI 1640 culture medium, treated and allowed to grow for 5-6 days. To measure cell growth, 20 μL of a combined MTS/PMS solution (Promega Cell ProliferationAssay Kit Cat #G5430) was added to each well of the 96 well assay plate. After 1-4 hours the plates were placed in the ELISA plate reader and the absorbance read at 490 nm. After subtraction of a blank (wells with no cells, absorbance typically about 0.4), growth inhibition was calculated as % of the untreated control and plotted against dose.

Human melanoma SKMel-5 = test: Growth inhibition of cultured cells; format: cell-based
Protocol: as §1, §2

mouse melanoma B16 = test: Growth inhibition of cultured cells; format: cell-based
Protocol: as §1, §2

normal skin = test: Inflammatory response of skin; conditions: in vivo
Bacillus subtilis = test: ProTOX (Bs) antibacterial bioassay; format: cell-based
From the text: ProTOX, (alternatively referred to herein as Bs) is an antibacterial bioassay, broadly applicable to most aerobic and anaerobic bacteria. The bioassay features a solid phase agar base into which the test compound has been incorporated together with a chromogen. As the bacteria multiply in the well, the chromogen is metabolised from blue in a two-step process to a colourless compound. Compounds with potent bactericidal activity inhibit bacterial metabolism of the chromogen while bacteriostatic compounds induce limited metabolism as indicated by an intermediate pink colour. ProTOX is broadly applicable to a range of gram-positive and gram-negative bacteria under aerobic and microaerophilic conditions. ProTOX assays were carried out using Bacillus subtilis.
Briefly, in ProTOX, the bacteria (24 hour broth) were applied to the surface of an agar matrix containing the test sample and allowed to grow for 48 hours. The assay was monitored at 24 and 48 hours and the active wells noted. Known antibiotics yield consistent colour transitions which are concentration and time dependent. These patterns provide an important guide to the early recognition of interesting characteristics.

Haemonchus contortus = test: NemaTOX (Ne) anthelmintic larval development bioassay
Protocol: NemaTOX (alternatively referred to herein as Ne) is an anthelmintic bioassay, applicable to all parasitic nematodes with free-living life cycle stages, and can be used as a screen to detect activity and define the species spectrum of compounds against parasitic nematodes and examine the impact of pre-existing resistance to other anthelmintic classes on potency. Haemonchus contortus was utilised for this assay.
The effect on larval development was determined in this assay by the method described by Gill et al. (1995) Int. J. Parasitol. 25: 463-470. Briefly, in this assay nematode eggs were applied to the surface of an agar matrix containing the test sample and allowed to develop through to the L3, infective stage (6 days). At this time the stage of larval development reached and any unusual features (deformity, paralysis, toxicity) were noted by microscopic examination.

[2] = Table 6a, last well with activity, real value may be lower

C/C=C(\C)C(=O)OC1C(C)C2(O)C(C3OC3(CO)C(O)C3(O)C(=O)C(C)=CC32)C2C(C)(C)C12OC(=O)C(C)CC (stereo not drawn) [EBI-46, 12-tigloyl-13-(2-methylbutanoyl)-6,7-epoxy-4,5,9,12,13,20-hexahydroxy-1-tiglian-3-one]
tumours cured and healed without scarring (LK2 mouse SCC; 37 ug/site in isopropanol gel once a day for 3 days, nude mice): without scarring of 3 out of 4 | systemic toxicity or lung metastases on post mortem (LK2 mouse SCC; 37 ug/site once a day for 3 days): no signs of systemic toxicity | tumour growth inhibition result (LK2 mouse SCC; high dose 350 μg/site/treatment): excellent result | PKC activity (PKC): yes | Concentration of EBI-46 at which growth inhibition was observed [1]: <100 ng/mL | Concentration of EBI-46 at which growth inhibition was observed (Human melanoma SKMel-5): <100 ng/mL | Concentration of EBI-46 at which growth inhibition was observed (mouse melanoma B16): =/<2 μg/mL | effect on skin (normal skin): can cause inflammation of skin; also recorded: causes an inflammatory response in normal skin | Bs Titre (Bacillus subtilis): 1 | Bs LD99 (Bacillus subtilis; [2]): 50 pg/mL | Ne Titre (Haemonchus contortus): 2 | Ne LD99 (Haemonchus contortus; [2]): 31 pg/mL
